Laboratory results published in PubChem BioAssay (NCI).
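Results reflect a 48-hour exposure of cells in 96-well plates to compound at five concentrations. The concentration for full growth arrest is given as TGI.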

What was measured:
Test in all cases: NCI anticancer screen, dose series, 48 h
[1] = system: 786-0 renal
[2] = system: A498 renal
[3] = system: A549 NSCLC
[4] = system: ACHN renal
[5] = system: BT-549 breast
[6] = system: CAKI-1 renal
[7] = system: COLO 205 colon
[8] = system: DU-145 prostate
[9] = system: EKVX NSCLC
[10] = system: HCT-116 colon
[11] = system: HCT-15 colon
[12] = system: HOP-62 NSCLC
[13] = system: HS 578T breast
[14] = system: IGROV1 ovarian
[15] = system: KM12 colon
[16] = system: LOX IMVI melanoma
[17] = system: M14 melanoma
[18] = system: MALME-3M melanoma
[19] = system: MCF7 breast
[20] = system: MDA-MB-231 breast
[21] = system: MDA-MB-435
[22] = system: MDA-N
[23] = system: NCI-H226 lung
[24] = system: NCI-H23 lung
[25] = system: NCI-H460 lung
[26] = system: NCI-H522 lung
[27] = system: NCI/ADR-RES ovarian
[28] = system: OVCAR-3 ovarian
[29] = system: OVCAR-5 ovarian
[30] = system: OVCAR-8 ovarian
[31] = system: RXF 393 renal
[32] = system: SF-268 CNS
[33] = system: SF-295 CNS
[34] = system: SF-539 CNS
[35] = system: SK-MEL-2 melanoma
[36] = system: SK-MEL-5 melanoma
[37] = system: SK-OV-3 ovarian
[38] = system: SN12C renal
[39] = system: SNB-19 CNS
[40] = system: SW-620 colon
[41] = system: T-47D breast
[42] = system: TK-10 renal
[43] = system: U251 CNS
[44] = system: UACC-257 melanoma
[45] = system: UACC-62 melanoma
[46] = system: UO-31 renal
[47] = system: CCRF-CEM leukemia
[48] = system: HCC-2998 colon
[49] = system: HOP-92 NSCLC
[50] = system: K-562 leukemia
[51] = system: MOLT-4 leukemia
[52] = system: OVCAR-4 ovarian
[53] = system: RPMI-8226 leukemia
[54] = system: SK-MEL-28 melanoma
[55] = system: SR leukemia
[56] = system: HT29 colon
[57] = system: PC-3 prostate
[58] = system: SNB-75 CNS
[59] = system: HL-60(TB) leukemia

Compound: COC(=O)/C1=C/c2c([nH]c3ccccc23)/C(C(=O)OC)=C\c2c1[nH]c1ccccc21
- TGI [1]: > 50 µM
- TGI [2]: > 50 µM
- TGI [3]: > 50 µM
- TGI [4]: > 50 µM
- TGI [5]: > 50 µM
- TGI [6]: > 50 µM
- TGI [7]: > 50 µM
- TGI [8]: > 50 µM
- TGI [9]: > 50 µM
- TGI [10]: > 50 µM
- TGI [11]: > 50 µM
- TGI [12]: > 50 µM
- TGI [13]: > 50 µM
- TGI [14]: 38.9 µM
- TGI [15]: > 50 µM
- TGI [16]: > 50 µM
- TGI [17]: > 50 µM
- TGI [18]: > 50 µM
- TGI [19]: > 50 µM
- TGI [20]: > 50 µM
- TGI [21]: > 50 µM
- TGI [22]: > 50 µM
- TGI [23]: > 50 µM
- TGI [24]: > 50 µM
- TGI [25]: > 50 µM
- TGI [26]: 22 µM
- TGI [27]: > 50 µM
- TGI [28]: > 50 µM
- TGI [29]: > 50 µM
- TGI [30]: > 50 µM
- TGI [31]: 33.3 µM
- TGI [32]: > 50 µM
- TGI [33]: > 50 µM
- TGI [34]: > 50 µM
- TGI [35]: > 50 µM
- TGI [36]: > 50 µM
- TGI [37]: > 50 µM
- TGI [38]: > 50 µM
- TGI [39]: > 50 µM
- TGI [40]: > 50 µM
- TGI [41]: > 50 µM
- TGI [42]: > 50 µM
- TGI [43]: > 50 µM
- TGI [44]: > 50 µM
- TGI [45]: > 50 µM
- TGI [46]: > 50 µM

Compound: NS(=O)(=O)c1nnc(NS(=O)(=O)c2ccc(F)cc2)s1
- TGI [1]: > 100 µM
- TGI [2]: > 100 µM
- TGI [3]: > 100 µM
- TGI [4]: > 100 µM
- TGI [5]: > 100 µM
- TGI [6]: > 100 µM
- TGI [47]: > 100 µM
- TGI [7]: > 100 µM
- TGI [8]: > 100 µM
- TGI [9]: > 100 µM
- TGI [48]: > 100 µM
- TGI [10]: > 100 µM
- TGI [11]: > 100 µM
- TGI [12]: > 100 µM
- TGI [49]: > 100 µM
- TGI [13]: > 100 µM
- TGI [50]: > 100 µM
- TGI [15]: > 100 µM
- TGI [16]: > 100 µM
- TGI [17]: > 100 µM
- TGI [19]: > 100 µM
- TGI [20]: > 100 µM
- TGI [21]: > 100 µM
- TGI [22]: > 100 µM
- TGI [51]: > 100 µM
- TGI [23]: > 100 µM
- TGI [24]: > 100 µM
- TGI [25]: > 100 µM
- TGI [27]: > 100 µM
- TGI [28]: > 100 µM
- TGI [52]: > 100 µM
- TGI [29]: > 100 µM
- TGI [30]: > 100 µM
- TGI [53]: > 100 µM
- TGI [31]: > 100 µM
- TGI [32]: > 100 µM
- TGI [33]: > 100 µM
- TGI [34]: > 100 µM
- TGI [35]: > 100 µM
- TGI [54]: > 100 µM
- TGI [36]: > 100 µM
- TGI [37]: > 100 µM
- TGI [38]: > 100 µM
- TGI [39]: > 100 µM
- TGI [55]: > 100 µM
- TGI [40]: > 100 µM
- TGI [41]: > 100 µM
- TGI [42]: > 100 µM
- TGI [43]: > 100 µM
- TGI [44]: > 100 µM
- TGI [45]: > 100 µM
- TGI [46]: > 100 µM

Compound: Cc1ccc(S(=O)(=O)NC(C(=O)O)C(C)C)cc1 (configuration not stated)
- TGI [1]: > 100 µM
- TGI [2]: > 100 µM
- TGI [3]: > 100 µM
- TGI [4]: > 100 µM
- TGI [5]: > 100 µM
- TGI [6]: > 100 µM
- TGI [47]: > 100 µM
- TGI [8]: > 100 µM
- TGI [9]: > 100 µM
- TGI [48]: > 100 µM
- TGI [10]: > 100 µM
- TGI [11]: > 100 µM
- TGI [12]: > 100 µM
- TGI [49]: > 100 µM
- TGI [13]: > 100 µM
- TGI [56]: > 100 µM
- TGI [14]: > 100 µM
- TGI [50]: > 100 µM
- TGI [15]: > 100 µM
- TGI [16]: > 100 µM
- TGI [17]: > 100 µM
- TGI [18]: > 100 µM
- TGI [20]: > 100 µM
- TGI [21]: > 100 µM
- TGI [22]: > 100 µM
- TGI [51]: > 100 µM
- TGI [23]: > 100 µM
- TGI [24]: > 100 µM
- TGI [25]: > 100 µM
- TGI [26]: > 100 µM
- TGI [27]: > 100 µM
- TGI [28]: > 100 µM
- TGI [52]: > 100 µM
- TGI [29]: > 100 µM
- TGI [30]: > 100 µM
- TGI [57]: > 100 µM
- TGI [31]: > 100 µM
- TGI [32]: > 100 µM
- TGI [33]: > 100 µM
- TGI [35]: > 100 µM
- TGI [54]: > 100 µM
- TGI [36]: > 100 µM
- TGI [38]: > 100 µM
- TGI [39]: > 100 µM
- TGI [58]: > 100 µM
- TGI [55]: > 100 µM
- TGI [40]: > 100 µM
- TGI [41]: > 100 µM
- TGI [42]: > 100 µM
- TGI [43]: > 100 µM
- TGI [44]: > 100 µM
- TGI [45]: > 100 µM
- TGI [46]: > 100 µM

Compound: COc1ccc(CCCNC(=O)Cc2cc(OC)c(OC)cc2CO)cc1OC
- TGI [1]: > 100 µM
- TGI [2]: > 100 µM
- TGI [3]: > 100 µM
- TGI [4]: > 100 µM
- TGI [5]: > 100 µM
- TGI [6]: > 100 µM
- TGI [47]: > 100 µM
- TGI [7]: > 100 µM
- TGI [8]: > 100 µM
- TGI [9]: > 100 µM
- TGI [48]: > 100 µM
- TGI [10]: > 100 µM
- TGI [11]: > 100 µM
- TGI [59]: > 100 µM
- TGI [12]: > 100 µM
- TGI [49]: > 100 µM
- TGI [13]: > 100 µM
- TGI [56]: > 100 µM
- TGI [14]: > 100 µM
- TGI [50]: > 100 µM
- TGI [15]: > 100 µM
- TGI [16]: > 100 µM
- TGI [17]: > 100 µM
- TGI [18]: > 100 µM
- TGI [20]: > 100 µM
- TGI [21]: > 100 µM
- TGI [22]: > 100 µM
- TGI [51]: > 100 µM
- TGI [23]: > 100 µM
- TGI [24]: > 100 µM
- TGI [25]: > 100 µM
- TGI [27]: > 100 µM
- TGI [28]: > 100 µM
- TGI [52]: > 100 µM
- TGI [29]: > 100 µM
- TGI [30]: > 100 µM
- TGI [57]: > 100 µM
- TGI [35]: > 100 µM
- TGI [54]: > 100 µM
- TGI [36]: > 100 µM
- TGI [38]: > 100 µM
- TGI [39]: > 100 µM
- TGI [58]: > 100 µM
- TGI [55]: > 100 µM
- TGI [40]: > 100 µM
- TGI [41]: > 100 µM
- TGI [42]: > 100 µM
- TGI [43]: > 100 µM
- TGI [44]: > 100 µM
- TGI [45]: > 100 µM
- TGI [46]: > 100 µM

Compound: Cc1nn(C(=O)c2ccccc2O)c2c1C(c1ccco1)SC(N)=N2 (configuration not stated)
- TGI [1]: > 10 µM
- TGI [2]: > 10 µM
- TGI [3]: > 10 µM
- TGI [4]: > 10 µM
- TGI [5]: > 10 µM
- TGI [6]: > 10 µM
- TGI [47]: > 10 µM
- TGI [7]: > 10 µM
- TGI [8]: > 10 µM
- TGI [9]: > 10 µM
- TGI [10]: > 10 µM
- TGI [11]: > 10 µM
- TGI [59]: > 10 µM
- TGI [12]: 6.8 µM
- TGI [49]: > 10 µM
- TGI [13]: > 10 µM
- TGI [56]: > 10 µM
- TGI [14]: > 10 µM
- TGI [50]: > 10 µM
- TGI [15]: > 10 µM
- TGI [16]: > 10 µM
- TGI [17]: > 10 µM
- TGI [18]: > 10 µM
- TGI [20]: > 10 µM
- TGI [21]: > 10 µM
- TGI [22]: > 10 µM
- TGI [51]: > 10 µM
- TGI [23]: > 10 µM
- TGI [24]: > 10 µM
- TGI [25]: > 10 µM
- TGI [27]: 8.16 µM
- TGI [28]: > 10 µM
- TGI [52]: > 10 µM
- TGI [29]: > 10 µM
- TGI [30]: > 10 µM
- TGI [57]: > 10 µM
- TGI [53]: > 10 µM
- TGI [31]: > 10 µM
- TGI [32]: > 10 µM
- TGI [33]: > 10 µM
- TGI [34]: > 10 µM
- TGI [35]: > 10 µM
- TGI [54]: > 10 µM
- TGI [37]: > 10 µM
- TGI [38]: > 10 µM
- TGI [39]: > 10 µM
- TGI [58]: > 10 µM
- TGI [55]: > 10 µM
- TGI [40]: > 10 µM
- TGI [41]: > 10 µM
- TGI [42]: > 10 µM
- TGI [43]: > 10 µM
- TGI [44]: > 10 µM
- TGI [45]: 6 µM
- TGI [46]: > 10 µM
